The values below come from patent US20260028330A1, “HETEROARYL CARBOXAMIDE AND RELATED GPR84 ANTAGONISTS AND USES THEREOF” (LIMINAL BIOSCIENCES LIMITED, priority 2022, published 2026).

In experiment [1] the test system is dextran sodium sulfate-induced chronic inflammatory bowel disease model. Conditions: once-daily doses of 3 and 10 mg/kg; mouse; cited from earlier work.
The target in experiment [2] is T1, human GPR84 receptor (Homo sapiens, UniProt Q9NQS5).
T1 construct: host or cells: HEK293 cells, transient transfection
The experiment in a line: Gαi biosensor BRET assay in transfected HEK293 cells (antagonism of GPR84 agonist ZQ-16). The experiment is classed as cell-based. Conditions: 200 nmol/L ZQ-16; for inhibition at 10 µM / inhibition at 2 µM: HEK293, single concentration; for inhibition at 10 µM: code F = 10 μM; for inhibition at 2 µM: code A = 2 μM. An excerpt: Background—The following assays can be used for determination of GPR84 activation in living HEK293 cells. The Gαi BRET biosensor (Gagnon et al., 2018; Gales et al., 2006. Nat Struct Mol Biol. 13, 778-86; Saulieres et al., 2012. Nat Chem Biol. 8, 622-30) allows to directly monitor GPR84-mediated activation of Gαi. The Gαi biosensor consists of a Rluc8-tagged Gαi2 subunit, a GFP10-tagged Gγ2 subunit, and an untagged Gβ1. Agonist stimulation and GPR84 activation triggers a physical separation between the RLuc8-Gαi donor and the GFP10-Gγ2 acceptor, resulting in a decrease in BRET signal whose amplitude is correlated to ligand efficacy (Gales et al., 2006). Moreover, signaling functions of GPCRs are tightly regulated by endocytosis, the targeting of receptors to endosomes and their sorting to lysosomes or recycling to the plasma membrane. The early endosomes (EEs) trafficking assay (Namkung et al., 2016. Nat Commun. 7, 12178) uses Rluc8-tagged GPR84 and Renilla GFP (rGFP) attached to the FYVE domain from human endofin/zinc finger FYVE domain-containing protein 16, which binds phosphatidylinositol 3-phosphate in EEs. Agonist stimulation of GPR84-Rluc8 leads to trafficking of the receptor to EEs, and ensuing increase of the donor concentration relative to the rGFP-FYVE acceptor anchored in the same cellular compartment, and thus results in an increase in BRET signal.
Plasmids—The cDNA clones for human GPR84 receptor, human Gαi2, Gβ1, and Gγ2 were obtained from the cDNA Resource Center (www.cdna.org). GFP10 (F64L, S147P, S202F and H231L variant of Aequorea victoria Green Fluorescent Protein) gBlocks gene fragments (Integrated DNA Technologies, IA) and linker were inserted in frame at the N-terminus of human Gγ2. Rluc8 (A55T, C124A, S130A, K136R, A143M, M185V, M253L, and S287L variant of the Renilla reniformis luciferase) gBlocks gene fragment was inserted with linkers in frame in between residues 91 and 92 of Gα2 or at the C-terminus of GPR84. The FYVE domain from human endofin (residues Q739 to K806) attached in frame at the C terminus of a humanized Renilla GFP (rGFP), were synthesized as gBlocks gene fragments.
Bioluminescence Resonance Energy Transfer (BRET) Measurement—HEK293 cells were transfected with GPR84-Rluc8 and rGFP-FYVE for the EEs trafficking biosensor or with GPR84, Gαi2-Rluc8, GFP10-Gγ2, and Gβ1 for the Gαi biosensor. The following day, transiently transfected cells were seeded in 96-well white clear bottom microplates coated with poly-D-lysine and left in culture for 24 hours. Cells were washed once with Tyrode's buffer (140 mmol/L NaCl, 1 mmol/L CaCl2, 2.7 mmol/L KCl, 0.49 mmol/L MgCl2, 0.37 mmol/L NaH2PO4, 5.6 mmol/L glucose, 12 mmol/L NaHCO3, and 25 mmol/L HEPES, pH 7.5) before performing assays in Tyrode's buffer. Test compounds were incubated with cells for 5 (Gui) or 15 (EEs) minutes at 37° C. before addition of 200 nmol/L of the GPR84 agonist ZQ-16 (2-(Hexylthio)-6-hydroxy-4(3H)-pyrimidinone) for 5 minutes at room temperature (Gui) or 30 minutes at 37° C. (EEs). The Rluc8 substrate coelenterazine 400A (Prolume, Lakeside, AZ) was added at a final concentration of 5 μmol/L and BRET readings were collected using an Infinite M1000 microplate reader (Tecan, Morrisville, NC). BRET^2 readings between Rluc8 and GFP10 or rGFP were collected by sequential integration of the signals detected in the 370 to 450 nm (Rluc8) and 510 to 540 nm (GFP10, rGFP) windows. The BRET signal was calculated as the ratio of light emitted by acceptor (GFP10, rGFP) over the light emitted by donor (Rluc8). The values were corrected to net BRET by subtracting the background BRET signal obtained in cells transfected with Rluc8 constructs alone. Ligand-promoted net BRET values were calculated by subtracting vehicle-induced net BRET from ligand-induced net BRET.
(In BRET a luciferase serves as donor, and the signal depends on an acceptor being close.)

T1 sequence (Q9NQS5 whole entry): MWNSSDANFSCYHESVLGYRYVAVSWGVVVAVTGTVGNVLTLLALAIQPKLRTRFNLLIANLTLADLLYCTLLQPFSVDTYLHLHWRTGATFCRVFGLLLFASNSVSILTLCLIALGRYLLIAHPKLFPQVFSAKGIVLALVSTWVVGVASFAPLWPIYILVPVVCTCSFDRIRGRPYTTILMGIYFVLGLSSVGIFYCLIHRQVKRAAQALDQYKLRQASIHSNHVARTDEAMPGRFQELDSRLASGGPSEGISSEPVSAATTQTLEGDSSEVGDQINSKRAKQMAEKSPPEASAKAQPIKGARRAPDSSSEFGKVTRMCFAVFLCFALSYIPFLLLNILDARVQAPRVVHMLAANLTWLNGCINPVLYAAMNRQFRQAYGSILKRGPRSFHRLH

As for `O=c1nc(OC[C@@H]2COCCO2)cc2n1CCc1cc(C#CC3CC3)ccc1-2` [GLPG1205], in experiment [1], the “disease activity index score” value is “reduced” and the neutrophil infiltration entry is “reduced”. Consider `Cc1cc(C#CC2CC2)ccc1N(C)C(=O)c1cn(CC2OCC3(CC3)CO2)nn1` [Compound I-21], for which, in experiment [2], the IC50 (commonly the point on the concentration scale where inhibition reaches its midpoint) is at most 300 nM and the inhibition (usually the relative decrease from the control value, in per cent) at 10 µM is above 75%. As to `Cc1cc(C#CC2CC2)ccc1C(=O)N(C)c1cn(CC2OCC3(CC3)CO2)nn1` [Compound I-19], in experiment [2], the inhibition at 10 µM was 50 to 75%. In experiment [2], `CN(C(=O)c1cn(CC2OCC3(CC3)CO2)nn1)c1ccc(C#CC2CC2)cc1Br` [Compound I-38] showed an IC50 of at most 300 nM and an inhibition at 2 µM above 75%. In the case of `Cc1ccc(C#CC2CC2)c2c1N(C(=O)c1cn(CC3OCC4(CC4)CO3)nn1)CC2` [Compound I-4, (1-((5,7-dioxaspiro[2.5]octan-6-yl)methyl)-1H-1,2,3-triazol-4-yl)(4-(cyclopropylethynyl)-7-methylindolin-1-yl)methanone], in experiment [2], the inhibition at 10 µM is at most 25%. In experiment [2], `Cc1ccc(C#CC2CC2)cc1N(C(=O)c1cn(CC2OCC3(CC3)CO2)nn1)C(C)C` [Compound I-86] showed an IC50 of at most 300 nM and an inhibition at 2 µM above 75%.
